In patent US20110300168A1, “COMPOSITIONS AND METHODS FOR INDUCING AN IMMUNE RESPONSE AGAINST INFLUENZA ANTIGENS” (THE JOHNS HOPKINS UNIVERSITY, priority 2010, published 2011):

Key:
Assay type in all cases: cell-based, human
[1] = tested on: CD8+ T cells; settings: control donors aged 21-42, wk 0 directly ex vivo, peptide pulsed T2 cells 1:1; positive if SFC greater than 5 per 100000 CD8+ T cells, p<0.05
[2] = tested on: CD8+ T cells; settings: for control donors in whom the epitope elicited a response: 12 control donors, aAPC assay, ICS; for geriatric donors with CD8+ T cells responding to the epitope: nine geriatric donors aged 65 and above, IFNγ ICS after 3 weeks of aAPC stimulation
[3] = tested on: CD8+ T cells

## CVNGSCFTV (listed as Influenza virus) [NA231-239, subdominant influenza peptide, pool 1]
[1]
  number of donors who responded by IFNγ ELISpot: no donor responded

## IMDKNIILKA (listed as Influenza virus) [NS1123-132, subdominant influenza peptide, pool 2]
[1]
  number of donors who responded by IFNγ ELISpot: One
[2]
  control donors in whom the epitope elicited a response: majority of the donors
  geriatric donors with CD8+ T cells responding to the epitope: Donors E2, E3, E4, and E8 responded

## NMLSTVLGV (listed as Influenza virus) [PB1413-421, subdominant influenza peptide, pool 1]
[1]
  number of donors who responded by IFNγ ELISpot: Four out of the six
[2]
  control donors in whom the epitope elicited a response: majority of the donors
  geriatric donors with CD8+ T cells responding to the epitope: none responded
[2]; Donor C1, after 3 weekly aAPC stimulations, restimulated with peptide pulsed T2 cells 1:1
  CD8+ T cells specific by IFNγ expression (ICS): 37%
[3]
  CD8+ T cells specific for the epitope by A2-Ig dimer staining: 75%

## SLCPIRGWAI (listed as Influenza virus) [NA75-84, subdominant influenza peptide, pool 2]
[1]
  number of donors who responded by IFNγ ELISpot: 2

## SLENFRAYV (listed as Influenza virus) [PA225-233, subdominant influenza peptide, pool 1]
[1]
  number of donors who responded by IFNγ ELISpot: One
